In PubChem BioAssay AID1963961 (Molecular Pharmacology Branch, DTP, NCI, 2024):
Several values for one entry are separate records, joined by “and”; a condition that tells them apart may be missing. Equal values may be shown once.

Tested on: K98450-129-R-PDC multicell spheroids, viability
Assay: Anticancer human tumor K98450-129-R-PDC patient-derived colon adenocarcinoma cell line growth inhibition [PI3K]
Conditions: for viability, T/C: stronger effect = lower value
Description: Combinatorial screen of targeted agents with the PI3K inhibitors inavolisib, alpelisib, duvelisib, and copanlisib in multi-cell type tumor spheroids
A high-throughput screen of multi-cell type tumor spheroids was designed to identify active combinations of targeted small molecules and PI3K pathway inhibitors. Complex spheroids include a stromal component modeled by human endothelial cells (HUVEC) and fibroblasts modeled by human mesenchymal stem cells (MSCs). The concentration ranges selected for each drug and investigational agent were based upon clinically achievable concentrations if the clinical Cmax of the agent was known.
Compounds. The drugs and investigational agents: inavolisib (NSC800729), alpelisib (NSC765974), duvelisib (NSC772469), copanlisib (NSC816437), ipatasertib (NSC767898), afuresertib (NSC778305), talazoparib (NSC767125), sapanisertib (NSC764658), selumetinib (NSC741078), tovorafenib (DAY101, NSC766906), vemurafenib (NSC761431), ravoxertinib (NSC781343), sotorasib (NSC818433), MRTX1133 (NSC 836407), abemaciclib (NSC 768073), palbociclib (NSC758247), venetoclax (NSC 766270), SY5609 (NSC837396), enzalutamide (NSC755605), and darolutamide (NSC825331), were obtained from the National Cancer Institute (NCI) Developmental Therapeutics Program Chemical Repository. The FDA-approved anticancer drug set is available from the NCI Developmental Therapeutics Program. […] The stock solutions were prepared in dimethyl sulfoxide (DMSO, Sigma-Aldrich, St. Louis, MO, cat. D2650) at 800-fold the tested concentration and stored at -70 degrees C prior to their use. All drugs and investigational agents were tested over a range starting from a high concentration at or near the clinical Cmax and decreasing in half-log increments. If the clinical Cmax for an agent had not been determined, the highest concentration tested was 10 microM.
Cell Culture. All cells were maintained in an incubator at 37 degrees C and 5% CO2 with 95% humidity. The PDC lines were cultured according to standard operating procedures established by the NCI PDMR (https://pdmr.cancer.gov/sops/default.htm). All PDCs were thawed and cultured in Matrigel-coated flasks prepared with a working solution of 1X Ham's F-12 nutrient mix, without supplementation (Invitrogen, Waltham, MA, cat. 11765054), 100 U/mL penicillin-streptomycin (Invitrogen, cat. 15140122), and 2.5% Matrigel (Corning Inc., Corning, NY, cat. 354248) for the first three passages. The 354836-022-R-J1-PDC, 475296-252-R-J1-PDC, and 997726-040-R-J2-PDC lines were cultured in 6A media, which includes advanced DMEM/F-12 (Thermo Fisher Scientific, cat. 12634028), 10 mM HEPES (Thermo Fisher Scientific, cat. 15630080), 1X GlutaMAX supplement (Thermo Fisher Scientific, cat. 35050061), 0.1 mg/mL primocin (InvivoGen, San Diego, CA, cat. ant-pm-2), 10% defined fetal bovine serum, heat inactivated (HyClone Laboratories Inc., Logan, UT, cat. SH30070.03HI), 50% L-WRN conditioned media (ATCC, cat. CRL-3276), 1.25 mM N-Acetyl-L-cysteine (Sigma-Aldrich, cat. A9165), 10 mM nicotinamide (Sigma-Aldrich, cat. N0636), 1X B-27 supplement (Thermo Fisher Scientific, cat. 17504044), 1X N-2 supplement (Thermo Fisher Scientific, cat. 17502048), and 10 microM Y-27632 dihydrochloride (Tocris Bioscience, Bristol, United Kingdom, cat. 1254). The 624824-186-R-J2-PDC line was cultured in 6C/Colon 1B media, which includes all 6A media components plus 50 ng/mL human EGF recombinant protein (Thermo Fisher Scientific, cat. PHG0311). […]
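Further: spheroids exposed to agents for seven days before read-out.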

With `C#Cc1c(F)ccc2cc(O)cc(-c3ncc4c(N5CC6CCC(C5)N6)nc(OCC56CCCN5CC(F)C6)nc4c3F)c12` (stereo not given) the viability, T/C (compound 0.0316 µM) was 109% [middle of 4 runs], the viability, T/C (compound 0.1 µM) was 106% [middle of 4 runs] and the viability, T/C (compound 0.316 µM) was 104% (2×) and 101% and 102%. The viability, T/C (compound 1 µM) was 105% [middle of 4 runs], the viability, T/C (compound 3.16 µM) was 99.8% and 91.5% (2×) and 108% and the viability, T/C (compound 10 µM) was 89.9% [middle of 4 runs]. For the same compound, the IC50 (curve of compound) was greater than 10 µM.

With `Cn1ncc(Cl)c1-c1cc(C(=O)NC(CN)Cc2cccc(F)c2)sc1Cl` (stereo not given) the viability, T/C (compound 0.0316 µM) was 108% [middle of 4 runs], the viability, T/C (compound 0.1 µM) was 98.9% and 101% (2×) and 95.5% and the viability, T/C (compound 0.316 µM) was 107% [middle of 4 runs]. For the same compound, the viability, T/C (compound 1 µM) was 98.2% [middle of 4 runs], the viability, T/C (compound 3.16 µM) was 92.7% [middle of 4 runs] and the IC50 (curve of compound) was greater than 10 µM.

With `Cn1cnc2c(F)c(Nc3ccc(Br)cc3Cl)c(C(=O)NOCCO)cc21` + CC(Nc1ccc2c(c1)OCCn1cc(N3C(=O)OCC3C(F)F)nc1-2)C(N)=O the IC50 (curve of first compound, second compound 0.00316 µM) was 1.33 µM, the IC50 (curve of first compound, second compound 0.01 µM) was 1.15 µM and the IC50 (curve of first compound, second compound 0.0316 µM) was 1.19 µM. For the same compound, the IC50 (curve of first compound, second compound 0.1 µM) was 1.24 µM, the IC50 (curve of first compound, second compound 0.316 µM) was 0.857 µM and the IC50 (curve of first compound, second compound 1 µM) was 0.605 µM. For the same compound, the viability, T/C (second compound 0.00316 µM, first compound 0.00949 µM) was 105%, the viability, T/C (second compound 0.00316 µM, first compound 0.03 µM) was 86.9% and the viability, T/C (second compound 0.00316 µM, first compound 0.0949 µM) was 95.5%. It also gave a viability, T/C (second compound 0.00316 µM, first compound 0.3 µM) of 76.1%, a viability, T/C (second compound 0.00316 µM, first compound 0.949 µM) of 62.1% and a viability, T/C (second compound 0.00316 µM, first compound 3 µM) of 25.7%. It also gave a viability, T/C (second compound 0.01 µM, first compound 0.00949 µM) of 102%, a viability, T/C (second compound 0.01 µM, first compound 0.03 µM) of 88.7% and a viability, T/C (second compound 0.01 µM, first compound 0.0949 µM) of 91%. The viability, T/C (second compound 0.01 µM, first compound 0.3 µM) was 75.4%, the viability, T/C (second compound 0.01 µM, first compound 0.949 µM) was 56.3% and the viability, T/C (second compound 0.01 µM, first compound 3 µM) was 21.9%. For the same compound, the viability, T/C (second compound 0.0316 µM, first compound 0.00949 µM) was 99.3%, the viability, T/C (second compound 0.0316 µM, first compound 0.03 µM) was 93.4% and the viability, T/C (second compound 0.0316 µM, first compound 0.0949 µM) was 83%. It also gave a viability, T/C (second compound 0.0316 µM, first compound 0.3 µM) of 75.3%, a viability, T/C (second compound 0.0316 µM, first compound 0.949 µM) of 62.1% and a viability, T/C (second compound 0.0316 µM, first compound 3 µM) of 17.7%. For the same compound, the viability, T/C (second compound 0.1 µM, first compound 0.00949 µM) was 89.5%, the viability, T/C (second compound 0.1 µM, first compound 0.03 µM) was 81.8% and the viability, T/C (second compound 0.1 µM, first compound 0.0949 µM) was 85.6%. For the same compound, the viability, T/C (second compound 0.1 µM, first compound 0.3 µM) was 76.5%, the viability, T/C (second compound 0.1 µM, first compound 0.949 µM) was 60.5% and the viability, T/C (second compound 0.1 µM, first compound 3 µM) was 16.7%. For the same compound, the viability, T/C (second compound 0.316 µM, first compound 0.00949 µM) was 83.7%, the viability, T/C (second compound 0.316 µM, first compound 0.03 µM) was 83.5% and the viability, T/C (second compound 0.316 µM, first compound 0.0949 µM) was 82.5%. For the same compound, the viability, T/C (second compound 0.316 µM, first compound 0.3 µM) was 72.2%, the viability, T/C (second compound 0.316 µM, first compound 0.949 µM) was 48% and the viability, T/C (second compound 0.316 µM, first compound 3 µM) was 11.1%. The viability, T/C (second compound 1 µM, first compound 0.00949 µM) was 76.6%, the viability, T/C (second compound 1 µM, first compound 0.03 µM) was 77.5% and the viability, T/C (second compound 1 µM, first compound 0.0949 µM) was 78.2%. The viability, T/C (second compound 1 µM, first compound 0.3 µM) was 66.8%, the viability, T/C (second compound 1 µM, first compound 0.949 µM) was 38.9% and the viability, T/C (second compound 1 µM, first compound 3 µM) was 9.63%.
